# Test results: patent publication US20250197407A1 (Jazz Pharmaceuticals Ireland Limited, priority 2022, published 2025)
# Molecular target: SOS1/KRAS WT (Homo sapiens (Human), UniProt Q07889)
# Assay: SOS1/KRAS WT HTRF binding assay (FRET-based protein-protein interaction)
# Settings: inhibition of His6-SOS1 (aa564-1049, 40 nM) binding to GST-KRAS-WT (aa1-188, 40 nM); at least two independent replicates; read-out: SOS1/KRAS WT HTRF Binding assay pIC50 (converted)
# In short: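 Time-resolved FRET at 665 nm, read 4 hr after adding anti-GST-Eu(K) (4 nM) and anti-6His-XL665 (20 nM), tracked SOS1(aa564-1049)–KRAS WT(aa1-188) association. Both proteins were at 40 nM, pre-incubated 60 min at room temperature with compound. Max/min signals came from 0.05% DMSO and 10 μM reference, with four-parameter logistic IC50.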
# SOS1/KRAS WT, sequence (Q07889 564-1049): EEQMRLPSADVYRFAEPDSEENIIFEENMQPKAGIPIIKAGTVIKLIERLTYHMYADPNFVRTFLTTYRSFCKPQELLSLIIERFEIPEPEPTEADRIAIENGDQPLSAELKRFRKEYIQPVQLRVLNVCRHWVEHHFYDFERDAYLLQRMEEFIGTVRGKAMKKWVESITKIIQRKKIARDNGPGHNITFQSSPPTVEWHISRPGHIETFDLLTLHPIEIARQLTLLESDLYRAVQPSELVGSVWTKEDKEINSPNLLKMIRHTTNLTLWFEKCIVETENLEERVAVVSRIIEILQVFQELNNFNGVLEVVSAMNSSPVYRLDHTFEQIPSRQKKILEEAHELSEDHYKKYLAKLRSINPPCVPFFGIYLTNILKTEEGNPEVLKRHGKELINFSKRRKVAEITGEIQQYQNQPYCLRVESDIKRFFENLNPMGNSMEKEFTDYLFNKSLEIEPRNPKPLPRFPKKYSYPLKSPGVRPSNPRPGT
row,SMILES,IC50
1,"CCN1C(=O)C(C)(OC)c2cc3c(C)nnc(N[C@H](C)c4cccc(C(F)(F)CO)c4C)c3cc21 (stereo partly drawn) [Compound 168, 1-ethyl-3-methoxy-3,5-dimethyl-8-[[(1R)-1-[3-(1,1-difluoro-2-hydroxy-ethyl)-2-methyl-phenyl]ethyl]amino]pyrrolo[2,3-g]phthalazin-2-one]",8.91 nM
2,"COCC1(C)C(=O)N(C)c2cc3c(N[C@H](C)c4cccc(C(F)(F)C(C)(C)O)c4C)nnc(C)c3cc21 (stereo partly drawn) [Compound 113, 8-[[(1R)-1-[3-(1,1-difluoro-2-hydroxy-2-methyl-propyl)-2-methyl-phenyl]ethyl]amino]-3-(methoxymethyl)-1,3,5-trimethyl-pyrrolo[3,2-g]phthalazin-2-one]",13.5 nM
3,"Cc1nnc(N[C@H](C)c2ccc3cn[nH]c3c2)c2cc3c(cc12)n(C)c(=O)n3C [Compound 57, 5-[[(1R)-1-(1H-indazol-6-yl)ethyl]amino]-1,3,8-trimethyl-imidazo[4,5-g]phthalazin-2-one]",93.3 nM
4,"Cc1nnc(N[C@H](C)c2cccc(C(F)(F)C(C)(C)O)c2F)c2cc3c(cc12)C1(CCOCC1)C(=O)N3C1CC1 [Compound 121, 1-cyclopropyl-5-methyl-8-[[(1R)-1-[3-(1,1-difluoro-2-hydroxy-2-methyl-propyl)-2-fluoro-phenyl]ethyl]amino]spiro[pyrrolo [2,3-g]phthalazine-3,4′-tetrahydropyran]-2-one]",6.31 nM
5,"COC1(C)C(=O)N(C2CC2)c2cc3c(N[C@H](C)c4cccc(C(F)(F)CO)c4)nnc(C)c3cc21 (stereo partly drawn) [Compound 142, 1-cyclopropyl-3-methoxy-3,5-dimethyl-8-[[(1R)-1-[3-(1,1-difluoro-2-hydroxy-ethyl)phenyl]ethyl]amino]pyrrolo [2,3-g]phthalazin-2-one]",12.9 nM
6,"Cc1cc(-c2cccc([C@@H](C)Nc3nnc(C)c4cc5c(cc34)n(C)c(=O)n5C)c2C)n(C)n1 [Compound 156, 1,3,8-trimethyl-5-[[(1R)-1-[3-(2,5-dimethylpyrazol-3-yl)-2-methyl-phenyl]ethyl]amino]imidazo[4,5-g]phthalazin-2-one]",89.1 nM
7,"Cc1nnc(N[C@H](C)c2cccc(C(F)(F)F)c2)c2cc3c(cc12)n(C)c(=O)n3CC1CC1 [Compound 18, 3-(cyclopropylmethyl)-1,8-dimethyl-5-[[(1R)-1-[3-(trifluoromethyl)phenyl]ethyl]amino] imidazo[4,5-g]phthalazin-2-one]",23.4 nM
8,"Cc1c(C#N)cccc1[C@@H](C)Nc1nnc(C)c2cc3c(cc12)n(C(C)C)c(=O)n3C [Compound 45, 2-methyl-3-[(1R)-1-[(3-isopropyl-1,8-dimethyl-2-oxo-imidazo[4,5-g]phthalazin-5-yl)amino]ethyl]benzonitrile]",9.77 nM
9,"Cc1nnc(N[C@H](C)c2cccc(C(F)(F)CO)c2F)c2cc3c(cc12)C1(CCOCC1)C(=O)N3C1CC1 [Compound 114, 1-cyclopropyl-5-methyl-8-[[(1R)-1-[3-(1,1-difluoro-2-hydroxy-ethyl)-2-fluoro-phenyl]ethyl]amino]spiro[pyrrolo [2,3-g]phthalazine-3,4′-tetrahydropyran]-2-one]",9.12 nM
10,"Cc1c([C@@H](C)Nc2nnc(C)c3cc4c(cc23)C2(CCOCC2)C(=O)N4C)cccc1C(F)(F)CO [Compound 129, 1,8-dimethyl-5-[[(1R)-1-[3-(1,1-difluoro-2-hydroxy-ethyl)-2-methyl-phenyl]ethyl]amino]spiro[pyrrolo [3,2-g]phthalazine-3,4′-tetrahydropyran]-2-one]",6.61 nM
11,"COCC(F)(F)c1cccc([C@@H](C)Nc2nnc(C)c3cc4c(cc23)n(C)c(=O)n4C)c1F [Compound 36, 5-[[(1R)-1-[3-(1,1-difluoro-2-methoxy-ethyl)-2-fluoro-phenyl]ethyl]amino]-1,3,8-trimethyl-imidazo[4,5-g]phthalazin-2-one]",12 nM
12,"Cc1nnc(N[C@H](C)c2cccc(C(F)(F)CO)c2)c2cc3c(cc12)N(C)C(=O)C31CCOCC1 [Compound 128, 1,8-dimethyl-5-[[(1R)-1-[3-(1,1-difluoro-2-hydroxy-ethyl)phenyl]ethyl]amino]spiro [pyrrolo[3,2-g]phthalazine-3,4′-tetrahydropyran]-2-one]",6.31 nM
13,"Cc1nnc(N[C@H](C)c2cccc(C(F)(F)CO)c2)c2cc3c(cc12)n(C)c(=O)n3C(C)C [Compound 14, 3-isopropyl-1,8-dimethyl-5-[[(1R)-1-[3-(1,1-difluoro-2-hydroxy-ethyl)phenyl]ethyl]amino]imidazo [4,5-g]phthalazin-2-one]",7.59 nM
14,"Cc1c([C@@H](C)Nc2nnc(C)c3cc4c(cc23)N(C)C(=O)C4(C)C)cccc1C(F)(F)C(C)(C)O [Compound 108, 1,3,3,5-tetramethyl-8-[[(1R)-1-[3-(1,1-difluoro-2-hydroxy-2-methyl-propyl)-2-methyl-phenyl]ethyl]amino]pyrrolo[2,3-g]phthalazin-2-one]",10.5 nM
15,"Cc1nnc(N[C@H](C)c2cccc(C(F)(F)F)n2)c2cc3c(cc12)n(C)c(=O)n3C [Compound 74, 1,3,8-trimethyl-5-[[(1R)-1-[6-(trifluoromethyl)-2-pyridyl]ethyl]amino]imidazo[4,5-g]phthalazin-2-one]",912 nM
16,"Cc1c([C@@H](C)Nc2nnc(C)c3cc4c(cc23)n(C2CC2)c(=O)n4C)cccc1C(F)(F)CO [Compound 68, 3-cyclopropyl-1,8-dimethyl-5-[[(1R)-1-[3-(1,1-difluoro-2-hydroxy-ethyl)-2-methyl-phenyl]ethyl]amino]imidazo[4,5-g]phthalazin-2-one]",9.55 nM
17,"Cc1nnc(N[C@H](C)c2cccc(C(F)(F)CO)c2F)c2cc3c(cc12)n(C)c(=O)n3C(C)(C)C [Compound 26, 3-tert-butyl-1,8-dimethyl-5-[[(1R)-1-[3-(1,1-difluoro-2-hydroxy-ethyl)-2-fluoro-phenyl]ethyl]amino]imidazo[4,5-g]phthalazin-2-one]",14.5 nM
18,"CCC1(OC)C(=O)N(C)c2cc3c(C)nnc(N[C@H](C)c4cccc(C(F)(F)C(C)(C)O)c4)c3cc21 (stereo partly drawn) [Compound 192, 5-[[(1R)-1-[3-(1,1-difluoro-2-hydroxy-2-methyl-propyl)phenyl]ethyl]amino]-3-ethyl-3-methoxy-1,8-dimethyl-pyrrolo[2,3-g]phthalazin-2-one]",16.2 nM
19,"COC1(C)C(=O)N(C)c2cc3c(N[C@H](C)c4cc(F)cc(C(F)(F)CO)c4C)nnc(C)c3cc21 (stereo partly drawn) [Compound 183, 3-methoxy-1,3,5-trimethyl-8-[[(1R)-1-[3-(1,1-difluoro-2-hydroxy-ethyl)-5-fluoro-2-methyl-phenyl]ethyl]amino]pyrrolo[2,3-g]phthalazin-2-one]",11 nM
20,"CCOC1(C)C(=O)N(C)c2cc3c(C)nnc(N[C@H](C)c4cccc(C(F)(F)C(C)(C)O)c4F)c3cc21 (stereo partly drawn) [Compound 190, 3-ethoxy-1,3,8-trimethyl-5-[[(1R)-1-[3-(1,1-difluoro-2-hydroxy-2-methyl-propyl)-2-fluoro-phenyl]ethyl]amino]pyrrolo[3,2-g]phthalazin-2-one]",16.6 nM
21,"Cc1nnc(N[C@H](C)c2cccc(C(F)(F)F)c2F)c2cc3c(cc12)n(C)c(=O)n3C [Compound 40, 1,3,8-trimethyl-5-[[(1R)-1-[2-fluoro-3-(trifluoromethyl)phenyl]ethyl]amino]imidazo[4,5-g]phthalazin-2-one]",8.91 nM
22,"Cc1c(C#N)cccc1[C@@H](C)Nc1nnc(C)c2cc3c(cc12)n(C)c(=O)n3C [Compound 39, 2-methyl-3-[(1R)-1-[(1,3,8-trimethyl-2-oxo-imidazo[4,5-g]phthalazin-5-yl)amino]ethyl]benzonitrile]",44.7 nM
23,"Cc1nnc(N[C@H](C)c2cccc(C(F)(F)C(C)(C)O)c2)c2cc3c(cc12)N(C)C(=O)C3(C)C [Compound 96, 1,3,3,8-tetramethyl-5-[[(1R)-1-[3-(1,1-difluoro-2-hydroxy-2-methyl-propyl)phenyl]ethyl]amino]pyrrolo [3,2-g]phthalazin-2-one]",13.5 nM
24,"COC1(C)C(=O)N(C)c2cc3c(C)nnc(N[C@H](C)c4cccc(C(F)(F)C(C)(C)O)c4)c3cc21 (stereo partly drawn) [Compound 180, 3-methoxy-1,3,8-trimethyl-5-[[(1R)-1-[3-(1,1-difluoro-2-hydroxy-2-methyl-propyl)phenyl]ethyl]amino]pyrrolo [3,2-g]phthalazin-2-one]",12 nM
25,"COC1(C)C(=O)N(C)c2cc3c(C)nnc(N[C@H](C)c4cccc(C(F)(F)C(C)(C)O)c4F)c3cc21 (stereo partly drawn) [Compound 179, 3-methoxy-1,3,8-trimethyl-5-[[(1R)-1-[3-(1,1-difluoro-2-hydroxy-2-methyl-propyl)-2-fluoro-phenyl]ethyl]amino]pyrrolo[3,2-g]phthalazin-2-one]",10.2 nM
26,"Cc1c(C#N)cccc1[C@@H](C)Nc1nnc(C)c2cc3c(cc12)N(C)C(=O)C3(C)C [Compound 48, 2-methyl-3-[(1R)-1-[(1,3,3,5-tetramethyl-2-oxo-pyrrolo[3,2-g]phthalazin-8-yl)amino]ethyl]benzonitrile]",13.5 nM
27,"CCC1(OC)C(=O)N(C)c2cc3c(C)nnc(N[C@H](C)c4cccc(C(F)(F)CO)c4F)c3cc21 (stereo partly drawn) [Compound 197, 5-[[(1R)-1-[3-(1,1-difluoro-2-hydroxy-ethyl)-2-fluoro-phenyl]ethyl]amino]-3-ethyl-3-methoxy-1,8-dimethyl-pyrrolo[2,3-g]phthalazin-2-one]",14.5 nM
28,"Cc1nnc(N[C@H](C)c2cccc(C(F)F)c2F)c2cc3c(cc12)C(C)(C)C(=O)N3C [Compound 44, 1,3,3,5-tetramethyl-8-[[(1R)-1-[3-(difluoromethyl)-2-fluoro-phenyl]ethyl]amino]pyrrolo[2,3-g]phthalazin-2-one]",8.71 nM
